The values below come from PMC7221699, “Synthesis and Cytotoxic Analysis of Novel Myrtenyl Grafted Pseudo-Peptides Revealed Potential Candidates for Anticancer Therapy” (Molecules, 2020).

The subject of data set [1] is human gastric adenocarcinoma (AGS) cells. Briefly: Sulforhodamine B (SRB) cell cytotoxicity assay, AGS cells. It is filed as cell-based. The note with it: for cytotoxicity to AGS cells (preliminary screen): 60, 120 and 240 ng/mL, 24 h of incubation; for cytotoxicity against AGS cells at the lowest concentration: 60 ng/mL; for cytotoxicity against AGS cells at the lowest concentration / viability at 0.24 µg/mL: 24 h; for Emax / EC50: AGS cells; for Emax: maximal drug effect on viability rate, 1 = no effect, 0 = fully cytotoxic; for EC50 / viability at 0.24 µg/mL: Homo sapiens; for EC50: 24 h of drug treatment, SRB assay; for viability at 0.24 µg/mL: AGS, 240 ng/mL, Figure 2, read-out: viability (%) in the AGS screen. As to the method: (§1) […] The cell lines were expanded, cultured, and maintained at 37 °C in a humid atmosphere with 5% CO2 in modified Dulbecco’s medium (Thermo Fisher Scientific, Waltham, MA, USA), with 10% FBS (Thermo Fisher Scientific, Waltham, MA, USA) and 100 U/mL of the antibiotic mixture penicillin/streptomycin (Thermo Fisher Scientific, Waltham, MA, USA).
(§2) We evaluated the cytotoxicity effects of novel Myrtenal hybrids against on cells by the sulforhodamine B (SRB) assay. Initially, the cells were seeded in 96-well microplates at a density of 2 × 10^4 cells/well. All compounds were initially dissolved in 100% of methanol and prediluted to reduce methanol concentration to 1% or lower in culture medium and added to the cells at different concentrations for 24 h. Then, cells were fixed by adding 10% (w/v) trichloroacetic acid (TCA) (Winkler) in each well and were stained with 0.057% (w/v) Sulforhodamine B (SRB) (Sigma-Aldrich) in 1% (v/v) acetic acid (Winkler). The bound dye was dissolved in 10 mM Tris base (Sigma-Aldrich), and the absorbance was determined at 510 nm using a multiplate reader (Synergy 2, Biotek Instruments). Percentage cell viability was determined using the formula: […]. The absorbance from the wells of the negative control (1% methanol in culture medium) was considered as the 100% viability. EC50 values were determined by regression analysis (R^2 > 0.95) of the corresponding dose response curves of percentage of cell viability and concentration of the compounds. Emax, the maximum effect of the drug at the highest tested concentration were determined using an online calculator (http://www.grcalculator.org/). Emax lies between 1 and 0; a value of 0 corresponds to a fully cytotoxic response.

In data set [2] the test system is human breast adenocarcinoma (MCF-7) cells. Briefly: Sulforhodamine B (SRB) cell cytotoxicity assay, MCF-7 cells. The data set is classed as cell-based. The note with it: for EC50: Homo sapiens, MCF7, 24 h of drug treatment, SRB assay; for Emax: maximal drug effect on viability rate, 1 = no effect, 0 = fully cytotoxic. The procedure: as §1, §2
Background: Sulforhodamine B stains cellular protein and so reports cell mass.

Data set [3] deals with human dermal fibroblast (HDF) cells. Briefly: Sulforhodamine B (SRB) cell cytotoxicity assay, HDF non-cancer cells. The data set is classed as cell-based. The note with it: 60, 120 and 240 ng/mL, 24 h. The procedure:
as §1, §2

In the next data set the test system is primary CD4+ T cells. Briefly: Viability and cell count of activated CD4+ T lymphocytes per proliferation cycle (flow cytometry). The data set is classed as cell-based, human. The note with it: compounds added at EC25 48 h after activation, incubated four days; for viability of non-proliferating CD4+ T cells: cycle 0 and 1; for viability / number of proliferating CD4+ T cells: cycle 2, 3 and 4. The procedure:
CD4+ T cells were first stained with a cell tracer dye, a fluorescent reagent that diffuses into cells and binds covalently to intracellular amines, and then with a Live/Dead dye that permeates into cells with damaged membranes, while live cells remain unstained. In addition, counting beads were added into each sample to calculate the exact number of cells per cell cycle (Figure 4A). Then, in order to induce proliferation, fluorescent-labelled CD4+ T cells were activated with anti-CD3/CD28 beads, which mimic physiological T cell receptor triggering and co-stimulation in T lymphocytes. After activation, a proportion of cells proliferated, while some stayed in a non-proliferative state. […] Myrtenyl derivatives were added after the second day of culture to evaluate their effect on non-proliferating CD4+ T cells at cycle 0 and 1 and in proliferating cells in cycle 2, 3, and 4. Live CD4+ T cells activated in the presence of five Myrtenyl derivatives were counted and results were normalized with the control sample per cell cycle.
CD4+ T cells were obtained from peripheral blood from healthy volunteers. Blood samples were diluted 1:2 with PBS before adding 50 μL/mL of RosettSep Human CD4+ T cell enrichment cocktail (STEM CELL) for 20 min at room temperature. After incubation, samples were diluted again 1:4 with PBS and CD4+ T cells were obtained directly from the mononuclear fraction obtained after Ficoll–Hypaque density gradient centrifugation. CD4+ T cells were washed twice, counted, and resuspended in PBS. CD4+ T cells were then stained with 1 μM Cell Trace Violet Cell Proliferation Kit (Invitrogen, Thermo Fisher Scientific, Waltham, MA, USA) for 20 min at 37 °C, protected from light. Unbound dye was quenched by adding cold FCS for 5 min at 4 °C. CD4+ T cells were washed two times and resuspended in X–VIVO (Gibco) with IL–2 (50 U/mL, ProLeukin). Cells (2 × 10^5) were activated for 48 h with CD3/CD28 Dynabeads (Invitrogen) prior to adding the compounds. After 48 h, compounds were added (EC25) and incubated for four days. To analyze proliferation and viability, cells were stained with Live/Dead fixable far red dead cell staining kit (Invitrogen) for 30 min at 4 °C and counting beads were added before acquisition. Cells were acquired on an LSRFortessa X20 (BD) within 24 h. Data were analyzed using FlowJo (Tree Star, Inc., Ashland, OR, USA).
In general terms: A flow cytometer gives signals particle by particle.

The subject of data set [4] is human colon adenocarcinoma (HT-29) cells. Briefly: Sulforhodamine B (SRB) cell cytotoxicity assay, HT-29 cells. The data set is classed as cell-based. The note with it: HT29 cells; for Emax: maximal drug effect on viability rate, 1 = no effect, 0 = fully cytotoxic; for EC50: Homo sapiens, HT-29, 24 h of drug treatment, SRB assay. The procedure: as §1, §2

Usually EC50 stands for the concentration giving half of the maximal effect. As a reminder, the viability is a read-out of living cells in per cent, often relative to untreated cells.

As to `CC(=O)N(CC#CC#CCN(C(C)=O)C(C(=O)NC1CCCCC1)C1=CC[C@H]2C[C@@H]1C2(C)C)C(C(=O)NC1CCCCC1)C1=CC[C@H]2C[C@@H]1C2(C)C` (mixture of isomers) [4b, 2,2′-[hexa-2,4-diyne-1,6-diylbis(acetylazanediyl)]-bis[N-cyclohexyl-2-((1R,5S)-6,6-dimethylbicyclo[3.1.1]hept-2-en-2-yl)acetamide]], the “cytotoxicity to AGS cells (preliminary screen)” value in data set [1] is on record as “not cytotoxic”.

As to `CC(=O)N(Cc1ccccc1)C(C(=O)NC1CCCCC1)C1=CC[C@H]2C[C@@H]1C2(C)C` (stereo partly drawn) [1a, 2-(N-benzylacetamido)-N-cyclohexyl-2-((1R,5S)-6,6-dimethylbicyclo[3.1.1]hept-2-en-2-yl)acetamide], in data set [2], the EC50 was found to be 65 nM and the Emax came to 0.1. Besides, the “effect on HDF viability (preliminary screen)” value (shortened to “effect on HDF viability”) in data set [3] is reported as “without affecting HDF viability”. Moreover, in data set [1], the “cytotoxicity against AGS cells at the lowest concentration” value (“cytotoxicity against AGS cells” for short) is listed as “high cytotoxicity”, the Emax is listed as 0.1 and the EC50 came to 46 nM. Further, in the data set with primary CD4+ T cells, the “viability of non-proliferating CD4+ T cells at cycle 0” value was “more cytotoxic than 3c”, the “viability of non-proliferating CD4+ T cells” value was “reduced viability” and the “viability / number of proliferating CD4+ T cells” value (“viability / number” for short) is given as “reduced viability”. Besides, in data set [4], the Emax was found to be 0.1 and the EC50 came out at 68 nM.

For the molecule `C#CCN(CC(=O)NC1CCCCC1)C(=O)C1=CC[C@H]2C[C@@H]1C2(C)C` [2c, (1R,5S)-N-[2-(cyclohexylamino)-2-oxoethyl]-6,6-dimethyl-N-(prop-2-yn-1-yl)bicyclo[3.1.1]hept-2-ene-2-carboxamide], the viability at 0.24 µg/mL in data set [1] was determined as 60%.

For the molecule `CC1(C)[C@H]2CC=C(C(=O)N(CC#CC#CCN(CC(=O)NC3CCCCC3)C(=O)C3=CC[C@H]4C[C@@H]3C4(C)C)CC(=O)NC3CCCCC3)[C@@H]1C2` [4a, (1R,1′R,5S,5′S)-N,N′-(hexa-2,4-diyne-1,6-diyl)-bis{N-[2-(cyclohexylamino)-2-oxoethyl]-6,6-dimethylbicyclo [3.1.1]hept-2-ene-2-carboxamide}], in data set [1], the “cytotoxicity to AGS cells (preliminary screen)” value is recorded as “not cytotoxic”.

Turning to `CC1(C)[C@H]2CC=C(C(=O)N(CC(=O)NC3CCCCC3)Cc3cn(-c4cccc(Cl)c4)nn3)[C@@H]1C2` [3b, (1R,5S)-N-{[1-(3-chlorophenyl)-1H-1,2,3-triazol-4-yl]methyl}-N-[2-(cyclohexylamino)-2-oxoethyl]-6,6-dimethylbicyclo[3.1.1]hept-2-ene-2-carboxamide], in data set [2], the EC50 came out at 24 ± 7 nM and the Emax came out at 0.5. For the same molecule, in data set [3], the “effect on HDF viability” value is reported as “without affecting HDF viability”. Moreover, in data set [1], the “cytotoxicity against AGS cells” value is “high cytotoxicity”, the Emax was found to be 0.2 and the EC50 amounted to 49 ± 8 nM. For the same molecule, in the data set with primary CD4+ T cells, the “viability of non-proliferating CD4+ T cells” value is “did not reduce viability” and the “viability / number” value is “able to reduce number of proliferating cells”. Further, in data set [4], the Emax is given as 0.4 and the EC50 amounted to 21 ± 7 nM.

Take `CC(=O)OC[C@@H]1O[C@H](n2cc(CN(CC(=O)NC3CCCCC3)C(=O)C3=CC[C@H]4C[C@@H]3C4(C)C)nn2)[C@@H](OC(C)=O)[C@H](OC(C)=O)[C@H]1OC(C)=O` [3e, (2S,3S,4R,5S,6S)-2-(acetoxymethyl)-6-[4-({(1R,5S)-N-[2-(cyclohexylamino)-2-oxoethyl]-6,6-dimethylbicyclo [3.1.1]hept-2-ene-2-carboxamido}methyl)-1H-1,2,3-triazol-1-yl]tetrahydro-2H-pyran-3,4,5-triyl triacetate]: the “cytotoxicity against AGS cells” value in data set [1] is “low activity”.

`Cc1ccc(-n2cc(CN(CC(=O)NC3CCCCC3)C(=O)C3=CC[C@H]4C[C@@H]3C4(C)C)nn2)cc1` [3a, (1R,5S)-N-[2-(cyclohexylamino)-2-oxoethyl]-6,6-dimethyl-N-{[1-(p-tolyl)-1H-1,2,3-triazol-4-yl]methyl} bicyclo[3.1.1]hept-2-ene-2-carboxamide]: in data set [2], the EC50 amounted to 24 nM and the Emax came to 0.3. For the same molecule, in data set [3], the “effect on HDF viability” value was “without affecting HDF viability”. In data set [1], the “cytotoxicity against AGS cells” value is listed as “high cytotoxicity”, the Emax is 0.1 and the EC50 turned out to be 50 nM. Further, in the data set with primary CD4+ T cells, the “viability of non-proliferating CD4+ T cells at cycle 0” value was “more cytotoxic than 3c”, the “viability of non-proliferating CD4+ T cells” value is listed as “reduced viability” and the “viability / number” value was “reduced viability”. Moreover, in data set [4], the Emax is 0.3 and the EC50 came to 59 nM.

For `COc1ccc(-n2cc(CN(CC(=O)NC3CCCCC3)C(=O)C3=CC[C@H]4C[C@@H]3C4(C)C)nn2)cc1` [3c, (1R,5S)-N-[2-(cyclohexylamino)-2-oxoethyl]-N-{[1-(4-methoxyphenyl)-1H-1,2,3-triazol-4-yl]methyl}-6,6-dimethylbicyclo[3.1.1]hept-2-ene-2-carboxamide], in data set [2], the EC50 stood at 38 nM and the Emax is given as 0.4. For the same molecule, the “effect on HDF viability” value in data set [3] is given as “without affecting HDF viability”. For the same molecule, in data set [1], the “cytotoxicity against AGS cells” value was “high cytotoxicity”, the Emax stood at 0.1 and the EC50 was found to be 75 nM. In addition, in the data set with primary CD4+ T cells, the “viability of non-proliferating CD4+ T cells” value is reported as “reduced viability” and the “viability / number” value was “reduced viability”. In data set [4], the Emax was found to be 0.4 and the EC50 was found to be 38 nM.

Regarding `C#CCN(C(C)=O)C(C(=O)NC1CCCCC1)C1=CC[C@H]2C[C@@H]1C2(C)C` (mixture of isomers) [1c, N-cyclohexyl-2-((1R,5S)-6,6-dimethylbicyclo[3.1.1]hept-2-en-2-yl)-2-(N-(prop-2-yn-1-yl)acetamido) acetamide], the viability at 0.24 µg/mL in data set [1] turned out to be 40%.
